Results on 2 compounds are retold here after US8580764B2, “Combinational compositions and methods for treatment of cancer” (ArQule, Inc., priority 2010, dated 2013).

Each structure is given as a SMILES string. Like-named read-outs stand apart in the source and are kept apart here.

Test [1] relates to cancer cells. The experiment in a line: Cell cycle analysis of dosing regimen A (FIG. 8). It counts as cell-based. The settings on record: dosing regimen A of FIG. 3. Here is the method:
(§1) Cells were plated on day 0.

Test [2] has as its system human tumors. The settings on record: multiple mouse xenograft efficacy studies; cited from earlier work.
Test [3] has as its target T1, c-Met (Homo sapiens, UniProt P08581).
T1 construct: Exposure of c-Met expressing cancer cell lines; endogenous in cells
The settings on record: c-Met expressing cancer cell lines; cited from earlier work.

Test [4] has as its system cell cycle check point. The experiment in a line: Activation of cell cycle check point during dosing regimen A (FIG. 9). It counts as cell-based. The settings on record: dosing regimen A of FIG. 3. As for the experimental part: as §1
Test [5] relates to cancer cells. The settings on record: cited from earlier work.

T1 sequence (P08581 25-1390): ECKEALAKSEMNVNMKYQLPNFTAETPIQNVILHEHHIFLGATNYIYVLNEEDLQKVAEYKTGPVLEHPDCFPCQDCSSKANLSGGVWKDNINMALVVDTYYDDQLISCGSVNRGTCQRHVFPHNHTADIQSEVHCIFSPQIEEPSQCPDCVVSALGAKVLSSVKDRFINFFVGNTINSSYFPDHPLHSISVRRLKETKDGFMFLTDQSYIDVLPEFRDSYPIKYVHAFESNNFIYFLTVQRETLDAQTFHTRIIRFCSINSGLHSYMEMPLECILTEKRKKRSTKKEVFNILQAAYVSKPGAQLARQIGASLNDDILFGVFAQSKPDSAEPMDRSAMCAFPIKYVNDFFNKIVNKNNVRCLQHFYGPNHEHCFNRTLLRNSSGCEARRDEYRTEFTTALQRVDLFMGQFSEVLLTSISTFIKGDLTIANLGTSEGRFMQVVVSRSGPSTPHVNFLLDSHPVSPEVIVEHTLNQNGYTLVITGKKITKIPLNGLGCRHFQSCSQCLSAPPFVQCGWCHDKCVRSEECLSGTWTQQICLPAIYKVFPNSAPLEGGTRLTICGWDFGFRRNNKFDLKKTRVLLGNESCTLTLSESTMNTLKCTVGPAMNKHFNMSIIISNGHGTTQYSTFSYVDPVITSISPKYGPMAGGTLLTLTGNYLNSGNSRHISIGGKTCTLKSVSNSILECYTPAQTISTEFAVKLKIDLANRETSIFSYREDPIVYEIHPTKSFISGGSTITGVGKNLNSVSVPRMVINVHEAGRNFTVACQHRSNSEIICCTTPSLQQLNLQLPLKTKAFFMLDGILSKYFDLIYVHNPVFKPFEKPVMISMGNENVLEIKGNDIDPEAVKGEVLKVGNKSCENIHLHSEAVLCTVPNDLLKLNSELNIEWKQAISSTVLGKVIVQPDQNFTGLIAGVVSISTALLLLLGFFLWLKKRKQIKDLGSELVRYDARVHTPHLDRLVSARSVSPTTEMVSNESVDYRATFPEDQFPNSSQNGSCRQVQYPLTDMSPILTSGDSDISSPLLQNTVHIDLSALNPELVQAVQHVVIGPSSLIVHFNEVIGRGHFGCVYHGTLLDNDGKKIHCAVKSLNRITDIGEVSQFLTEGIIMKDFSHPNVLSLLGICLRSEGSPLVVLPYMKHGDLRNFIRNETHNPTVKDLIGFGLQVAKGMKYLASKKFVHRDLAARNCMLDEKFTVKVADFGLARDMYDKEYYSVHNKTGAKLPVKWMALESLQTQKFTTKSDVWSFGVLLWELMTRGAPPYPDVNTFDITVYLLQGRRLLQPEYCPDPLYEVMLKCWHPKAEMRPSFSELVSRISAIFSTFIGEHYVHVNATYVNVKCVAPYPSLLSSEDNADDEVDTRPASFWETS

With `O=C1NC(=O)[C@@H](c2cn3c4c(cccc24)CCC3)[C@@H]1c1c[nH]c2ccccc12` [Agent A, (−)-trans-3-(5,6-dihydro-4H-pyrrolo[3,2,1-ij]quinolin-1-yl)-4-(1H-indol-3-yl)pyrrolidine-2,5-dione], the cell cycle arrest entry in test [1] is “G2/M arrest”. For the same compound, the “growth of human tumors” value in test [2] is “inhibited the growth of human tumors”. The “phospho-c-Met levels and cell death” value in test [3] was “decrease in phospho-c-Met levels with eventual apoptotic cell death”.

Take `Nc1ccn([C@@H]2O[C@H](CO)[C@@H](O)C2(F)F)c(=O)n1` [gemcitabine]: the cell cycle arrest result in test [1] was “S-phase arrest”; in test [5], “arrest cancer cells in G1/S phase”. Further, the “activation of cell cycle check point” value in test [4] is listed as “activation of cell cycle check point”.
